The results in this text go back to patent publication EP4778922A1, “BICYCLIC COMPOUND, AND PREPARATION METHOD THEREFOR AND PHARMACEUTICAL USE THEREOF” (Shanghai Jeyou Pharmaceutical Co., Ltd., priority 2023, dated 2025).

Test system in one data set: not listed separately
The experiment in a line: Mouse pharmacokinetic test. Particulars: in vivo, 30 mg/kg, PO-30mpk. It counts as in vivo, ICR mice. On the procedure:
Formulation preparation: The dosing solutions were prepared on the day of administration.
Six healthy male naive ICR mice weighing 25-30 g were selected and divided into two groups (intravenous and oral groups), with three mice in each group, and administered a single dose. […] Feeding was resumed 4 h after administration. Timing was initiated following intravenous and oral administration. […] The collected whole blood was briefly vortexed twice for mixing, placed on wet ice, and centrifuged at 4°C and 8000 rpm for 5 min within 1 h. The supernatant plasma was collected and stored at -80°C until processing and analysis. Table 3: Pharmacokinetics in mice
In the case of `CC(C)(c1ccc(N2CCC(Oc3ccnc(P(C)(C)=O)n3)CC2)cc1)c1cc(Cl)c(OCCCl)c(C#N)c1` [Compound 10], the total exposure AUC(0-inf) (as a rule, the area under the concentration-time curve extrapolated to infinity) is 316 µg·h/mL; the maximum concentration (Cmax) (in general, the maximum level reached in the sampled fluid or tissue) worked out at 31000 ng/mL; the half-life (usually how long it takes for the measured level to halve) is 5.4 h.

Regarding `CC(C)(c1ccc(-c2cccc(OCc3ccnc(P(C)(C)=O)n3)c2)cc1)c1cc(Cl)c(OCCCl)c(C#N)c1` [Compound 6], the AUC(0-inf) amounted to 447 µg·h/mL, the Cmax was 62800 ng/mL and the half-life is 2.2 h.

Staying with this data set, now noted: in vivo, 30 mg/kg, PO-30mpk, read-out: Tmax.
Regarding `CC(C)(c1ccc(N2CCC(Oc3ccnc(P(C)(C)=O)n3)CC2)cc1)c1cc(Cl)c(OCCCl)c(C#N)c1` [Compound 10], the time to peak (Tmax) (commonly the time at which the peak concentration occurs) worked out at 3.3 h.

For the compound `CC(C)(c1ccc(-c2cccc(OCc3ccnc(P(C)(C)=O)n3)c2)cc1)c1cc(Cl)c(OCCCl)c(C#N)c1` [Compound 6], the Tmax was found to be 2.7 h.

Staying with this data set, now noted: plasma, 30 mg/kg, PO-30mpk.
`CC(C)(c1ccc(-c2ccc(OCc3ccnc(P(C)(C)=O)n3)cc2)cc1)c1cnc2c(cnn2CCCl)c1` [Compound 42] gave an area under the curve AUC(0-inf) of 422 µg·h/mL, a Cmax of 34300 ng/mL and a half-life of 4.42 h.

Staying with this data set, now noted: plasma, 30 mg/kg, PO-30mpk, read-out: Tmax.
Turning to `CC(C)(c1ccc(-c2ccc(OCc3ccnc(P(C)(C)=O)n3)cc2)cc1)c1cnc2c(cnn2CCCl)c1` [Compound 42], the time of peak concentration (Tmax) came to 3.33 h.

The data set is the same for the next values; noted with them: plasma, po, 30 mg/kg, PO-30mpk.
`CC(C)(c1ccc(-c2ccc(/C=C/c3ccnc(P(C)(C)=O)n3)cc2)cc1)c1cc(Cl)c(OCCCl)c(C#N)c1` [Compound 228]: the AUC(0-inf) came to 242 µg·h/mL, the concentration peaked (Cmax) at 14500 ng/mL and the half-life is 6 h.

The data set is the same for the next values; noted with them: plasma, po, 30 mg/kg, PO-30mpk, read-out: Tmax.
As for `CC(C)(c1ccc(-c2ccc(/C=C/c3ccnc(P(C)(C)=O)n3)cc2)cc1)c1cc(Cl)c(OCCCl)c(C#N)c1` [Compound 228], the Tmax is 4 h.

The next data set concerns 22RV1 cells. The experiment in a line: Cell proliferation inhibition assay in 22RV1 cells (CellTiter-Glo, 7 days). It counts as cell-based, human. The conditions noted are these: Homo sapiens, 168 h. On the procedure: • 1. The human prostate cancer cell lines 22RV1 and LNCaP were purchased from ATCC. […] The cell concentration was adjusted to an appropriate concentration (determined based on the results of cell density optimization experiments), and the cells were seeded into a 96-well plate. A 100 µL cell suspension was added, resulting in 3000 cells per well. […] On the second day, for 22Rv1 cells, test compounds at different concentrations were added, and the cells were incubated at 37°C in a 5% CO2 incubator for 7 days; for LNCaP cells, test compounds at different concentrations were added first, and after 1 hour of treatment, 0.2 nM DHT was added. The cells were then incubated at 37°C in a 5% CO2 incubator for 7 days. • 4. After the incubation period, a volume of CellTiter-Glo detection reagent equal to the volume of the culture medium was added to each well. The plate was shaken and mixed thoroughly for 5 minutes, then incubated at room temperature for 10 minutes. Readings were taken using a PerkinElmer EnVision microplate reader. • 5.
The IC50 curve was fitted and the IC50 value was calculated using the software GraphPad Prism 8 with the calculation formula XY-analysis/Nonlinear regression (curve fit)/Dose response-Inhibition/log (inhibitor) vs. response-Variable slope (four parameters).
(In ATP-based viability assays light output follows the ATP content of the culture.)
For the compound `CC(C)(c1ccc(-c2ccc(OC3CCN(c4ccnc(N5CC(S(C)(=O)=O)C5)n4)CC3)cc2)cc1)c1cc(Cl)c(OCCCl)c(C#N)c1` [Compound 143], it took 900 nM to reach half-maximal inhibition (IC50). In other words, the sub-micromolar range.

Turning to `CC(C)(c1ccc(-c2ccc(OCCN3CC4(C3)CS(=O)(=O)C4)cc2)cc1)c1cc(Cl)c(OCCCl)c(C#N)c1` [Compound 299], the IC50 (in general, the concentration at which inhibition is half-maximal) was 970 nM.

On to `CC(C)(c1ccc(-c2ccc(OCc3ccnc(N4CC5(CC(=O)C5)C4)n3)cc2)cc1)c1cc(Cl)c(OCCCl)c(C#N)c1` [Compound 122], for which the half-maximal inhibitory concentration (IC50) was 1280 nM. This IC50 and that of the compound before are within 1.5-fold of each other.

With `CC(C)(c1ccc(-c2ccc(OCc3ccnc(N=S4(=O)CCNCC4)n3)nc2)cc1)c1cc(Cl)c(OCCCl)c(C#N)c1` [Compound 211], the midpoint of inhibition, the IC50, lay at 390 nM.

For `CC(C)(c1ccc(-c2ccc(Oc3ccc(-c4cnc(P(C)(C)=O)nc4)cc3)cc2)cc1)c1cc(Cl)c(OCCCl)c(C#N)c1` [Compound 270], inhibition was half-maximal at 890 nM (IC50).

Turning to `CC(C)(c1ccc(-c2ccc(OCC3CC(CN4CC5(C4)CS(=N)(=O)C5)C3)cc2)cc1)c1cc(Cl)c(OCCCl)c(C#N)c1` (centres unmarked) [Compound 307], the IC50 turned out to be 660 nM.

As to `CC(C)(c1ccc(-c2ccc(OCc3ccnc(N=S4(=O)CCNCC4)n3)cn2)cc1)c1cc(Cl)c(OCCCl)c(C#N)c1` [Compound 86], the IC50 came to 630 nM. This IC50 and that of the compound before are within 1.5-fold of each other.

Consider `CC(C)(c1ccc(-c2ccc(OCc3ccnc(S(C)(=O)=O)n3)cc2)cc1)c1cc(Cl)c(OCCCl)c(C#N)c1` [Compound 1], for which inhibition was half-maximal at 1070 nM (IC50). This IC50 is about 1.7-fold higher than that of the compound before.

`CC(C)(c1ccc(-c2ccc(OC[C@@H]3CCOC3)cc2)cc1)c1cc(Cl)c(OCCCl)c(C#N)c1` [Compound 171] yielded an IC50 of 1240 nM.

As for `CC(C)(c1ccc(-c2ccc(OCc3ccnc(N4CC(S(=N)(=O)C5CC5)C4)n3)cn2)cc1)c1cc(Cl)c(OCCCl)c(C#N)c1` (centres unmarked) [Compound 336], the IC50 is 680 nM.

On to `CC(C)(c1ccc(-c2ccc(OCc3ccnc(P(C)(C)=O)n3)cc2)cc1)c1cc(Cl)c(OCC2CCC2)c(C#N)c1` [Compound 152], for which inhibition was half-maximal at 330 nM (IC50). This IC50 lies about 2.1-fold lower than the previous one.

Compound `CC(C)(c1ccc(-c2ccc(OCc3ccnc(C4CNC4)n3)cc2)cc1)c1cc(Cl)c(OCCCl)c(C#N)c1` [Compound 144] showed an IC50 of 740 nM.

`CC(C)(c1ccc(-c2ccc(/C=C/c3cnc(N=S4(=O)CCOCC4)nc3)cc2)cc1)c1cc(Cl)c(OCCCl)c(C#N)c1` [Compound 293] came in with a half-maximal inhibitory concentration (IC50) of 74 nM. Against the preceding compound, the IC50 is about 10-fold lower.

In the case of `CC(C)(c1ccc(-c2ccc(OCc3ccnc(N4CC5(C4)CS(=O)(=O)C5)n3)cn2)cc1)c1cc(Cl)c(OCCCl)c(C#N)c1` [Compound 84], the 50% inhibitory concentration (IC50) amounted to 1050 nM.

Consider `CC(C)(c1ccc(-c2ccc(OCc3ccnc(N4CC5(CCS5(=N)=O)C4)n3)cc2)cc1)c1cc(Cl)c(OCCCl)c(C#N)c1` (centres unmarked) [Compound 329], for which the IC50 was 390 nM.

As to `CC(C)(c1ccc(-c2ccc(OC3CCN(c4ccnc(N5CC(S(C)(=O)=O)C5)n4)CC3)nc2)cc1)c1cc(Cl)c(OCCCl)c(C#N)c1` [Compound 148], the IC50 was determined as 770 nM.

In turn, `CC(C)(c1ccc(-c2ccc(C#Cc3ccnc(N=S4(=O)CCCC4)n3)cc2)cc1)c1cc(Cl)c(OCCCl)c(C#N)c1` [Compound 21] returned a half-maximal inhibitory concentration (IC50) of 340 nM.

On to `CC(C)(c1ccc(-c2ccc(OCc3ccnc(N4CCC(S(C)(=O)=O)CC4)n3)nc2)cc1)c1cc(Cl)c(OCCCl)c(C#N)c1` [Compound 210], for which it took 230 nM to reach half-maximal inhibition (IC50).

In turn, `CC(C)(c1ccc(-c2ccc(OCC3CC4(C3)CS(=N)(=O)C4)cn2)cc1)c1cc(Cl)c(OCCCl)c(C#N)c1` (centres unmarked) [Compound 328] returned a half-maximal inhibitory concentration (IC50) of 1110 nM.

`CC(C)(c1ccc(-c2ccc(/C=C/c3cnc(N4CC5(C4)CS(=O)(=O)C5)nc3)cc2)cc1)c1cc(Cl)c(OCCCl)c(C#N)c1` [Compound 235] returned a half-maximal inhibitory concentration (IC50) of 610 nM.

In the case of `CC(C)(c1ccc(-c2ccc(OCC3CN(C4CCOCC4)C3)cc2)cc1)c1cc(Cl)c(OCCCl)c(C#N)c1` [Compound 212], inhibition was half-maximal at 440 nM (IC50).

For the compound `CC(C)(c1ccc(-c2ccc(OCc3ccnc(N=S4(=O)CCN(CC(F)F)CC4)n3)cc2)cc1)c1cc(Cl)c(OCCCl)c(C#N)c1` [Compound 239], the IC50 was determined as 1010 nM.

For the compound `CC(=O)N1CCS(=O)(=Nc2nccc(COc3ccc(-c4ccc(C(C)(C)c5cc(Cl)c(OCCCl)c(C#N)c5)cc4)cc3)n2)CC1` [Compound 218], the IC50 was 370 nM. This IC50 lies about 2.7-fold lower than the previous one.

Compound `CC(C)(c1ccc(-c2ccc(C#Cc3ncc(P(C)(C)=O)cn3)cc2)cc1)c1cc(Cl)c(OCCCl)c(C#N)c1` [Compound 282] displayed an IC50 of 820 nM. This IC50 is about 2.2-fold higher than that of the compound before.

`CC(C)(c1ccc(-c2ccc(OCc3ccnc(P(C)(C)=O)n3)c(C#N)c2)cc1)c1cc(Cl)c(OCCCl)c(C#N)c1` [Compound 173] came in with an IC50 of 400 nM.

As for `CC(C)(c1ccc(-c2ccc(OCc3ccnc(OC4CC5(COC5)C4)n3)cc2)cc1)c1cc(Cl)c(OCCCl)c(C#N)c1` [Compound 201], the IC50 was found to be 190 nM. This IC50 is about 2.1-fold lower than that of the compound before.

As to `CC(C)(c1ccc(-c2cnc(OCc3ccnc(N=S4(=O)CCCC4)n3)nc2)cc1)c1cc(Cl)c(OCCCl)c(C#N)c1` [Compound 36], the half-maximal inhibitory concentration (IC50) worked out at 1350 nM.

Compound `CC(C)(c1ccc(-c2ccc(OCc3ccnc(N4CC(O)C4)n3)cc2)cc1)c1cc(Cl)c(OCCCl)c(C#N)c1` [Compound 54] showed a half-maximal inhibitory concentration (IC50) of 1420 nM.

In the case of `CC(C)(c1ccc(-c2ccc(C#Cc3ccnc(N=S4(=O)CCCC4)n3)cc2)cc1)c1cnc2c(cnn2CCCl)c1` [Compound 240], 650 nM corresponded to half-maximal inhibition (IC50).

`CC(C)(c1ccc(-c2ccc(OCc3ccnc(N=S4(=O)CCN(CC(O)CC(F)(F)F)CC4)n3)cc2)cc1)c1cc(Cl)c(OCCCl)c(C#N)c1` (centres unmarked) [Compound 285] gave a half-inhibitory concentration (IC50) of 210 nM.

As to `CC(C)(c1ccc(-c2ccc(OCc3ccnc(N=S4(=O)CCN(CCC(F)(F)F)CC4)n3)cc2)cc1)c1cc(Cl)c(OCCCl)c(C#N)c1` [Compound 241], half-maximal inhibition (IC50) was put at 790 nM.

Consider `CC(C)(c1ccc(-c2ccc(OCC3CC(CN4CC5(C4)CS(=O)(=O)C5)C3)cc2)cc1)c1cc(Cl)c(OCCCl)c(C#N)c1` (centres unmarked) [Compound 80], for which half-maximal inhibition (IC50) was put at 110 nM.

Compound `CC(C)(c1ccc(-c2ccc(OCc3scnc3P(C)(C)=O)cc2)cc1)c1cc(Cl)c(OCCCl)c(C#N)c1` [Compound 157] displayed a half-inhibitory concentration (IC50) of 480 nM.

Compound `CC(C)(c1ccc(-c2ccc(OCc3ccnc(N=S4(=O)CCN(C[C@H](O)C(F)(F)F)CC4)n3)cc2)cc1)c1cc(Cl)c(OCCCl)c(C#N)c1` [Compound 287] showed a 50% inhibitory concentration (IC50) of 670 nM.
